Laboratory results from patent publication US8431556B2, “C-21-keto lupane derivatives preparation and use thereof” (Vertex Pharmaceuticals Incorporated, priority 2008, dated 2013).

Each molecule was assayed on HIV-1 (HIVIIIB) (assay: HIV-1 replication in MT2 cell line with and without 30% human serum (viral RT activity in supernatant)). Settings: Human immunodeficiency virus 1, MT2, MT-2 cells, with 30% human serum, average IC50 if tested more than once, read-out: MT-2 (HIVIIIB) with 30% HS IC50 range.
Format: cell-based
Procedure: HIV-1 Replication in MT2 cell line with and without 30% human serum: The cells are infected at a Multiciplicity of Infection (MOI) of 0.5 for 3 h and then washed twice with complete media to remove residual virus. Cells are then resuspended at 0.5×10^6/ml in complete medium (RPMI, 10% FBS, 1% sodium pyruvate), and seeded into 96-well plates (6.25×10^4/well). The cells are cultured in the presence or absence of various concentrations of test compounds in serial dilutions for 3 days at 37° C. The test compounds are serially diluted in complete medium supplemented or not with 30% human serum. After 3 days, 100 μL of cultured medium with cells are replaced with 120 μL of freshly diluted test compounds in complete medium containing or not 30% Human serum. The level of HIV-1 replication is determined at days 5 after infection by the presence of viral RT activity in harvested supernatant fluid. The IC50 and IC90 values for the virus replication are determined by using GRAPHPAD PRISM software.
The IC50 of the compounds tested in accordance with the HIV replication activity assay MT-2 (HIVIIIB) are represented in Table 4 (without HS) and Table 5 (with 30% HS)

`CC(C)C1=C2[C@H]3CC[C@@H]4[C@@]5(C)CC[C@H](OC(=O)CC(C)(C)C(=O)O)C(C)(C)[C@@H]5CC[C@@]4(C)[C@]3(C)CC[C@@]2(C(=O)Nc2cccnc2)CC1=O` [9-26, 3β-O-(3′,3′-Dimethylsuccinyl)-21-oxolup-18-en-28-oic acid N-pyridin-3-yl-acetamide] and `CC(C)C1=C2[C@H]3CC[C@@H]4[C@@]5(C)CC[C@H](OC(=O)CC(C)(C)C(=O)O)C(C)(C)[C@@H]5CC[C@@]4(C)[C@]3(C)CC[C@@]2(C(=O)Nc2ncccn2)CC1=O` [9-38, 3β-O-(3′,3′-Dimethylsuccinyl)-21-oxolup-18-en-28-oic acid N-pyrimidin-2-yl-acetamide] cannot be ordered by IC50: under 199 nM for the first, under 199 nM for the second.

`CC(C)C1=C2[C@H]3CC[C@@H]4[C@@]5(C)CC[C@H](OC(=O)CC(C)(C)C(=O)O)C(C)(C)[C@@H]5CC[C@@]4(C)[C@]3(C)CC[C@@]2(C(=O)N2CCN(C(=O)OC(C)(C)C)CC2)CC1=O` [9-27, 3β-O-(3′,3′-Dimethylsuccinyl)-21-oxolup-18-en-28-oic acid N-1-acetyl-piperazine-4-carboxylic acid tert-butyl ester] and `COC(=O)N1CCN(C(=O)[C@@]23CC[C@]4(C)[C@H](CC[C@@H]5[C@@]6(C)CC[C@H](OC(=O)CC(C)(C)C(=O)O)C(C)(C)[C@@H]6CC[C@]54C)C2=C(C(C)C)C(=O)C3)CC1` [9-40, 3β-O-(3′,3′-Dimethylsuccinyl)-21-oxolup-18-en-28-oic acid N-1-acetyl-piperazine-4-carboxylic acid methyl ester] cannot be ordered by IC50: under 199 nM for the first, under 199 nM for the second.

`CC(C)C1=C2[C@H]3CC[C@@H]4[C@@]5(C)CC[C@H](OC(=O)CC(C)(C)C(=O)O)C(C)(C)[C@@H]5CC[C@@]4(C)[C@]3(C)CC[C@@]2(C(=O)N2CCNCC2)CC1=O` [9-28, 3β-O-(3′,3′-Dimethylsuccinyl)-21-oxolup-18-en-28-oic acid N-piperazinyl-acetamide] and `CC(C)C1=C2[C@H]3CC[C@@H]4[C@@]5(C)CC[C@H](OC(=O)CC(C)(C)C(=O)O)C(C)(C)[C@@H]5CC[C@@]4(C)[C@]3(C)CC[C@@]2(C(=O)N2CCNC(=O)C2)CC1=O` [9-37, 3β-O-(3′,3′-Dimethylsuccinyl)-21-oxolup-18-en-28-oic acid N-4-piperazi-2-one acetamide] cannot be ordered by IC50: under 199 nM for the first, under 199 nM for the second.

Compared with `CC(C)C1=C2[C@H]3CC[C@@H]4[C@@]5(C)CC[C@H](OC(=O)CC(C)(C)C(=O)O)C(C)(C)[C@@H]5CC[C@@]4(C)[C@]3(C)CC[C@@]2(C(=O)NC2CCNCC2)CC1=O` [9-31, 3β-O-(3′,3′-Dimethylsuccinyl)-21-oxolup-18-en-28-oic acid N-(4-aminopiperidine)-acetamide], `CC(=O)N1CCC(NC(=O)[C@@]23CC[C@]4(C)[C@H](CC[C@@H]5[C@@]6(C)CC[C@H](OC(=O)CC(C)(C)C(=O)O)C(C)(C)[C@@H]6CC[C@]54C)C2=C(C(C)C)C(=O)C3)CC1` [9-32, 3β-O-(3′,3′-Dimethylsuccinyl)-21-oxolup-18-en-28-oic acid N-(4-amino-N-1-acetyl-piperidine)-acetamide] is lower in IC50: 200 to 999 nM for the first, under 199 nM for the second.

`CC(C)C1=C2[C@H]3CC[C@@H]4[C@@]5(C)CC[C@H](OC(=O)CC(C)(C)C(=O)O)C(C)(C)[C@@H]5CC[C@@]4(C)[C@]3(C)CC[C@@]2(C(=O)NC(C)c2ccccc2)CC1=O` (stereo partly drawn) [9-33, 3β-O-(3′,3′-Dimethylsuccinyl)-21-oxolup-18-en-28-oic acid N-(1-phenyl-ethyl)-acetamide] and `CC(C)C1=C2[C@H]3CC[C@@H]4[C@@]5(C)CC[C@H](OC(=O)CC(C)(C)C(=O)O)C(C)(C)[C@@H]5CC[C@@]4(C)[C@]3(C)CC[C@@]2(C(=O)NC(C)(C)c2ccccc2)CC1=O` [9-34, 3β-O-(3′,3′-Dimethylsuccinyl)-21-oxolup-18-en-28-oic acid N-(1-methyl-1-phenyl-ethyl)-acetamide] cannot be ordered by IC50: under 199 nM for the first, under 199 nM for the second.

`CC(C)C1=C2[C@H]3CC[C@@H]4[C@@]5(C)CC[C@H](OC(=O)CC(C)(C)C(=O)O)C(C)(C)[C@@H]5CC[C@@]4(C)[C@]3(C)CC[C@@]2(C(=O)N2C3CCC2CN(C(=O)c2ccccc2)C3)CC1=O` [9-36, 3β-O-(3′,3′-Dimethylsuccinyl)-21-oxolup-18-en-28-oic acid N-(8-amino-3,8-diaza-bicyclo[3.2.1]octane-3-benzamide)-acetamide] and `CC(C)C1=C2[C@H]3CC[C@@H]4[C@@]5(C)CC[C@H](OC(=O)CC(C)(C)C(=O)O)C(C)(C)[C@@H]5CC[C@@]4(C)[C@]3(C)CC[C@@]2(C(=O)N2CCC(N)CC2)CC1=O` [9-42] cannot be ordered by IC50: under 199 nM for the first, under 199 nM for the second.

`CC(C)NC(=O)N1CCN(C(=O)[C@@]23CC[C@]4(C)[C@H](CC[C@@H]5[C@@]6(C)CC[C@H](OC(=O)CC(C)(C)C(=O)O)C(C)(C)[C@@H]6CC[C@]54C)C2=C(C(C)C)C(=O)C3)CC1` [9-39, 3β-O-(3′,3′-Dimethylsuccinyl)-21-oxolup-18-en-28-oic acid N-(4-N′-isopropylureido-1-piperazine)-acetamide] and `CC(C)NC(=O)NC1CCN(C(=O)[C@@]23CC[C@]4(C)[C@H](CC[C@@H]5[C@@]6(C)CC[C@H](OC(=O)CC(C)(C)C(=O)O)C(C)(C)[C@@H]6CC[C@]54C)C2=C(C(C)C)C(=O)C3)CC1` [9-44, 3β-O-(3′,3′-Dimethylsuccinyl)-21-oxolup-18-en-28-oic acid N-[(4-amino-N′-isopropylureido)-1-piperidine]-acetamide] cannot be ordered by IC50: under 199 nM for the first, under 199 nM for the second.

`CC(C)C1=C2[C@H]3CC[C@@H]4[C@@]5(C)CC[C@H](OC(=O)CC(C)(C)C(=O)O)C(C)(C)[C@@H]5CC[C@@]4(C)[C@]3(C)CC[C@@]2(C(=O)N2CCC(NC(=O)OC(C)(C)C)CC2)CC1=O` [9-41, 3β-O-(3′,3′-Dimethylsuccinyl)-21-oxolup-18-en-28-oic acid N-(4-aminocarboxylic acid tert-butyl-ester-1-piperidine)-acetamide] and `COC(=O)NC1CCN(C(=O)[C@@]23CC[C@]4(C)[C@H](CC[C@@H]5[C@@]6(C)CC[C@H](OC(=O)CC(C)(C)C(=O)O)C(C)(C)[C@@H]6CC[C@]54C)C2=C(C(C)C)C(=O)C3)CC1` [9-45, 3β-O-(3′,3′-Dimethylsuccinyl)-21-oxolup-18-en-28-oic acid N-(4-aminocarboxylic acid methyl ester-1-piperidine)-acetamide] cannot be ordered by IC50: under 199 nM for the first, under 199 nM for the second.

`CC(=O)NC1CCN(C(=O)[C@@]23CC[C@]4(C)[C@H](CC[C@@H]5[C@@]6(C)CC[C@H](OC(=O)CC(C)(C)C(=O)O)C(C)(C)[C@@H]6CC[C@]54C)C2=C(C(C)C)C(=O)C3)CC1` [9-43, 3β-O-(3′,3′-Dimethylsuccinyl)-21-oxolup-18-en-28-oic acid N-(4-acetylamino-1-piperidine)-acetamide] and `CC(C)C1=C2[C@H]3CC[C@@H]4[C@@]5(C)CC[C@H](OC(=O)CC(C)(C)C(=O)O)C(C)(C)[C@@H]5CC[C@@]4(C)[C@]3(C)CC[C@@]2(C(=O)N2CCN(C)C(=O)C2)CC1=O` [9-46, 3β-O-(3′,3′-Dimethylsuccinyl)-21-oxolup-18-en-28-oic acid N-4-(1-methyl-piperazi-2-one)-acetamide] cannot be ordered by IC50: under 199 nM for the first, under 199 nM for the second.
